Here are results for 2 compounds from patent publication US20130345266A1, “PEST CONTROL COMPOSITION AND PEST CONTROL METHOD” (SUMITOMO CHEMICAL COMPANY, LIMITED, priority 2011, published 2013).

The subject of the experiment is common mosquito (Culex pipiens pallens). Description: Test Example 2: knock down test, forced contact with treated glass petri dish. The experiment is classed as in vivo. The conditions noted are these: 5 minutes after release, ten female adults, 3 min contact. How it is done: Acetone-diluted solutions were prepared so that predetermined dosage of the Guanidine Compound and the ester compound B on glass plates indicated in Table 1 would be applied. The acetone-diluted solutions (0.5 ml) were treated on the underside of glass petri dishes with a diameter of 7 cm uniformly and air-dried. Ten female adults of common mosquito (Culex pipiens pallens) were collected by means of a pocket aspirator and placed into the petri dish, then contacted compulsorily with the treated underside of glass petri dishes by covering with a lucid plate made of polyvinyl chloride.
Three minutes after covering, said common mosquitoes were released in nyron cage (size: 16.5 cm×15.5 cm×22 cm). At a given period of time after releasing, the number of knocked down insects was counted and a knock down rate was calculated.

In the case of `C/C=C\[C@@H]1[C@@H](C(=O)OCc2c(F)c(F)c(COC)c(F)c2F)C1(C)C` (relative stereo) [reference 4, 2,3,5,6-tetrafluoro-4-methoxymethylbenzyl=(1R)-trans-3-(1-propenyl(Z))-2,2-dimethylcyclopropanecarboxylate], the “Knock down rate (%) after 5 minutes” value is recorded as 10% (ester compound B alone 0.000125 mg/plate) and 20% (ester compound B alone 0.00025 mg/plate).
In the case of `CN/C(=N\[N+](=O)[O-])NCc1cnc(Cl)s1` [reference 1, (E)-1-(2-chloro-1,3-thiazol-5-ylmethyl)-3-methyl-2-nitroguanidine], the “Knock down rate (%) after 5 minutes” value (Guanidine Compound alone 0.000125 mg/plate) is 10%, the “Knock down rate (%) after 5 minutes” value (Guanidine Compound alone 0.00025 mg/plate) is on record as 10%, the “Knock down rate (%) after 5 minutes” value (Guanidine Compound alone 0.0005 mg/plate) amounted to 10% and the “Knock down rate (%) after 5 minutes” value (Guanidine Compound alone 0.00125 mg/plate) was 20%.
